Experimental data reported in US12357624B2, “Low dose pridopidine for Parkinson's Disease and other diseases associated with parkinsonism” (PRILENIA NEUROTHERAPEUTICS LTD., priority 2019, dated 2025).
Like-named read-outs stand apart in the source and are kept apart here.

Legend:
[1] = system: TH immunostaining, ventrolateral and dorsolateral striatum
Description: Results were expressed as the total number of TH-immunopositive pixels per sample area (averaged across areas). […] The high-magnification analysis of TH fibers on random sample areas was complemented by optical density (O.D.) measurements of TH immunostaining across the entire dorsolateral and ventro-lateral striatum. Although this method is much less sensitive than the actual fiber analysis [Francardo V, Bez F, Wieloch T, Nissbrandt H, Ruscher K, Cenci 33. MA. […] Brain: A Journal of Neurology.
The O.D. analysis was carried out in the same rostrocaudal levels using NIH Image J Software, as described in [Francardo V, Recchia A, Popovic N, Andersson D, Nissbrandt H, Cenci M A. Impact of the lesion procedure on the profiles of motor impairment and molecular responsiveness to L-DOPA in the 6-hydroxydopamine mouse model of Parkinson's disease. Neurobiology of Disease.

[2] = system: GDNF, BDNF, phosphorylated ERK1/2; details: 0.3 mg/kg, 35 days
Procedure: Animals prepared for Western blot analysis were euthanized by cervical dislocation; their brains were rapidly extracted and frozen on crushed dry ice. Tissue samples were dissected out in a cryostat chamber (−14° C.). […] The striatum was dissected out using a scalpel blade. Tissue samples from the substantia nigra were taken with a tissue puncher of 2 mm diameter spanning across rostrocaudal levels −2.70 to −3.80 relative to the bregma. The samples were kept frozen until further analysis.
Tissue homogenates were prepared in cell lysis buffer (20 mmol/LTris (pH 7.5), 150 mmol/L NaCl, 1 mmol/L EDTA, 1 mmol/L EGTA, 1% Triton X-100, 2.5 mmol/L sodium pyrophosphate, 1 mmol/L |3-glycerolphosphate, 1 mmol/L Na3VO4, […] leupeptin, and 1 mmol/L phenylmethylsulfonyl fluoride). Twenty micrograms of protein was separated on a 10% SDS polyacrylamide gel. […] Thereafter, membranes were incubated overnight at 4° C. using one of the following primary antibodies: rabbit polyclonal anti-GDNF (Santa Cruz Biotechnology, Inc., Santa Cruz, CA; 1:1000) and monoclonal anti-BDNF (Santa Cruz Biotechnology, Inc., 1:1000); rabbit polyclonal antibodies against Thr202/Tyr204-phosphorylated ERK1/2 (p44/42-MAPK; Cell Signaling Technology Inc., Danvers, MA, 1:2000). Following appropriate washing steps, membranes were incubated with HRP-linked secondary antibodies (Sigma-Aldrich, Deisenhofen, Germany; 1:15000). Signals were visualized using a chemiluminescence kit (Merck Millipore, Watford, Hertfordshire, UK), and images were acquired using a CCD camera (LAS1000 system, Fuji Films, Tokyo, Japan). Optical density was measured on specific immunoreactive bands using NIH Image J software. Membranes were then stripped and reprobed with |-actin antibodies (Sigma-Aldrich, 1:50,000). The optical density of specific bands was then normalized to the |-actin band in the same lane.

[3] = system: STHdhQ7/7 cells expressing Htt96Q-mCherry or Htt20Q-mCherry; details: cells without aggregates or cells expressing Htt20Q-mCherry
Description: H2a-GFP was transiently co-expressed with Htt20Q-mCherry or Htt96Q-mCherry (exon 1) in STHdhQ7/7 cells. H2a-GFP aggregation is a marker of cell stress. […] For comparative purposes, 100% represents H2a-GFP relative intensity in untreated cells showing Htt96Q-mCherry aggregates, 0% is H2a-GFP relative intensity in untreated cells without Htt96Q-cherry aggregates.
ER stress levels can be measured using H2a-GFP as protein indicator of early stages of ER stress. H2a-GFP is a misfolded secretory protein which in response to ER stress accumulates. The STHdhQ7/7 is a striatal derived cell line from a knock in transgenic mouse containing homozygous humanized Huntingtin gene (HTT) with 7 polyglutamine repeats (wild type). STHdhQ7/7 cells are transfected with either Htt96Q-mCherry (mutant, mimics the typical pathogenic expression of Htt in HD patients) or Htt20Q-mCherry (normal) constructs. When the polyQ-expanded Htt protein (96Q) exonl fused to fluorescent mCherry protein is expressed, the levels and aggregation of the protein in individual cells can be monitored using a fluorescent microscope.

eIF2α-phosphorylation = details: tested 0.03 to 150 μM
Description: The ratio of eIF2a-P to total eIF2a was quantified by immunoblot.

WT and YAC128 neurons = details: 24 h treatment; after oligomycin plus FCCP
Procedure: Mitochondrial function was assayed by measuring the levels of the fluorescent probe MitoPY1, which detects H2O2 levels in mitochondria. Mitochondrial membrane potential (MMP) was assessed in cortical and striatal neurons using the positively changed fluorescent probe TMRM (tetramethylrhodamine methyl ester). […] Under these conditions, retention of TMRM by mitochondria was studied to estimate changes in Dym. […] TMRM release was calculated based in the differences in fluorescence before and after addition of oligomycin/FCCP.

[4] = system: 6-OHDA-lesioned S1R KO mice; details: 0.3 mg/kg, 5 weeks, vs saline
Procedure: The study was performed in male C57B16J mice weighing approx. 25 g and having an age of 8 to 9 weeks at the beginning of the experiments. A total of 65 wild-type mice and 52 S1R knockout (KO) mice were used. S1R knockout mice and wild-type littermates (both genders) were bred on a C57BL6J background. Our S1R KO line is derived from the well-characterized Sigmar1^Gt(OST422756)Lex mouse strain distributed by the Mutant Mouse Resource Regional Centre (MMRRC) The mice were housed under a 12-h light/dark cycle with free access to food and water.
6-OHDA-HCl (Sigma-Aldrich AB, Stockholm, Sweden) was freshly dissolved in 0.02% ascorbate-saline at the concentration of 3.2 mg free base per milliliter. […] The solution was injected via a glass capillary (tip diameter−50 (1 m) at the rate of 0.5 (1 L/min, and the capillary was left in place for 2 mi after each injection.
The first injection was given immediately upon completion of lesion surgery. […] Full rotations (continuous turns of 360) were counted off-line by an experimentally blinded investigator. Data are expressed as the total number of net full turns ipsilateral to the lesion per test session.
The number of supporting wall contacts performed independently by the paw contralateral to the lesion was expressed as a percentage of all supporting wall contacts in each session. […]

S1R = S1R (Mus musculus, UniProt O55242); details: both doses of 0.3 and 1 mg/kg; judged plausible from Ki and free brain concentration
[5] = system: B104 neuroblastoma cell line; details: 100 nM and 1 μM; vs control untreated cells; cited from earlier work
[6] = molecular target: Sigma-1 receptor (S1R) vs dopamine D2/D3Rs (Rattus norvegicus, UniProt Q9R0C9); details: rats; behaviorally relevant doses; cited from earlier work
SOD1G93A motor neurons = details: 0.1 and 1 μM; cited from earlier work

S1R, sequence (O55242 whole entry): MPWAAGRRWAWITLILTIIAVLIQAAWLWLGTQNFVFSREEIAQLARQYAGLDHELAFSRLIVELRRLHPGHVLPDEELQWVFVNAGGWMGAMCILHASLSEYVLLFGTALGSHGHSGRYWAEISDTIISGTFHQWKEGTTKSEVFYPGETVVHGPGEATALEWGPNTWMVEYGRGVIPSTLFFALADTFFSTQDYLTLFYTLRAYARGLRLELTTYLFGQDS
Sigma-1 receptor (S1R) vs dopamine D2/D3Rs, sequence (Q9R0C9 whole entry): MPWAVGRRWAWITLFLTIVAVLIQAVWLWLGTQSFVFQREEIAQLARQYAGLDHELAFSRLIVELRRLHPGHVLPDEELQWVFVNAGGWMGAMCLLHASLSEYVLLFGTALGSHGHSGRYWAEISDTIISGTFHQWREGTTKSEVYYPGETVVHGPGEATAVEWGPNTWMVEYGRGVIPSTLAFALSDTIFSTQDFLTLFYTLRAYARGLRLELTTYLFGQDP

CCCN1CCC(c2cccc(S(C)(=O)=O)c2)CC1 [pridopidine, 4-[3-(methylsulfonyl)phenyl]-1-propyl-piperidine]
TH O.D. vs saline ([1]; 0.3 mg/kg, dorsolateral striatum): significant, albeit smaller increase | TH O.D. above saline control levels ([1]; 0.3 mg/kg, ventrolateral striatum): greater than twofold increase | TH O.D. vs saline ([1]; 1 mg/kg, dorsolateral striatum): only a trend | TH O.D. vs saline ([1]; 1 mg/kg, ventrolateral striatum): trend towards an increase that did not reach statistical significance | striatal BDNF level vs saline ([2]; striatum): +80.8% | striatal GDNF level vs saline ([2]; striatum): +37.6% | striatal phosphorylated ERK1/2 vs saline ([2]; striatum): +71% | BDNF level in the SN vs saline ([2]; substantia nigra): +88.5% | GDNF level in the SN vs saline ([2]; substantia nigra): only BDNF levels showed a significant increase | nigral phosphorylated ERK1/2 vs saline ([2]; substantia nigra): reached significance only in the striatum | H2a-GFP levels [3]: does not alter H2a-GFP levels | effective concentrations for reduction of eIF2α-P (eIF2α-phosphorylation): 0.03 to 3 µM | mitochondrial membrane potential (ΔΨm) (WT and YAC128 neurons): increases mitochondrial membrane potential | spontaneous rotations and forelimb use asymmetry (cylinder test, stepping test) [4]: does not improve motor deficits | occupancy of the S1R at Cmax (S1R): 100% | BDNF secretion [5]: enhanced BDNF secretion | receptor occupancy, in vivo PET [6]: occupy the Sigma-1 receptor (S1R) rather than the dopamine D2/D3Rs | BDNF axonal transport velocity (SOD1G93A motor neurons): significantly accelerates the velocity
